Source: PubChem BioAssay (NCI)
Values joined by “and” are separate entries in the source; they are usually repeats but may differ in a detail not shown here. Identical values can stand only once.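 1) Cells in 96-well plates. 2) Compound, 48 h, 5 concentrations. 3) Linear interpolation between surrounding doses. 4) Unreached endpoint = highest concentration. GI50 marks 50% less growth. Definition used: TGI = concentration required for complete inhibition of growth.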

Legend:
Test in all cases: NCI tumour cell line growth inhibition, 48 h
[1] = tested on: KM12 colon
[2] = tested on: SF-295 CNS
[3] = tested on: T-47D breast
[4] = tested on: UACC-257 melanoma
[5] = tested on: HT29 colon
[6] = tested on: BT-549 breast
[7] = tested on: M14 melanoma
[8] = tested on: OVCAR-8 ovarian
[9] = tested on: MOLT-4 leukemia
[10] = tested on: SR leukemia

| Compound | TGI [1] | TGI [2] | TGI [3] | TGI [4] | TGI [5] | TGI [6] | TGI [7] | TGI [8] | TGI [9] | TGI [10] | GI50 [1] | GI50 [3] | GI50 [4] | GI50 [6] | GI50 [8] | GI50 [9] | GI50 [5] | GI50 [7] | GI50 [2] | GI50 [10] |
| --- | --- | --- | --- | --- | --- | --- | --- | --- | --- | --- | --- | --- | --- | --- | --- | --- | --- | --- | --- | --- |
| N#CCc1[nH]nc2nc(SCc3ccccc3)nc(N3CCCCC3)c12 | 33 µM | 35.3 µM | 39.1 µM | 35.7 µM | 41.4 µM | 34.1 µM | 34.8 µM | > 100 µM | 37.9 µM |  |  |  |  |  |  |  |  |  |  |  |
| CC(=O)C1(c2ccccc2)CCCN(C)CC1 (stereo not drawn) | > 100 µM | > 100 µM | > 100 µM | > 100 µM | > 100 µM | > 100 µM | > 100 µM | > 100 µM | > 100 µM | > 100 µM |  |  |  |  |  |  |  |  |  |  |
| O=C1c2ccccc2-c2ccc(O)cc21 | 38.4 µM | 96.2 µM | 44.8 µM | 49.1 µM | > 100 µM |  | 72.7 µM | 42.2 µM | 44.4 µM | 29.7 µM |  |  |  |  |  |  |  |  |  |  |
| COc1ccc(OC)c2sc(N3C(=O)/C(=C/c4ccccc4S)N=C3c3ccccc3)nc12 | > 100 µM | > 100 µM | > 100 µM | > 100 µM | > 100 µM | > 100 µM | > 100 µM | > 100 µM | 35 µM | 35.2 µM |  |  |  |  |  |  |  |  |  |  |
| CCn1cc(C(=O)O)c(=O)c2cc(F)c(N3CCN(Cn4c(O)c(N=NC(=O)c5ccncc5)c5cc(Cl)ccc54)CC3)cc21 | > 100 µM | > 100 µM | > 100 µM | > 100 µM | > 100 µM | > 100 µM | > 100 µM | > 100 µM | 36 µM | 31 µM |  |  |  |  |  |  |  |  |  |  |
| CCC(C)C(NC(=O)C(CCCCN)NC(=O)C(NC(=O)C(CCC(N)=O)NC(=O)C(CCCNC(=N)N)NC(C)=O)C(C)CC)C(=O)NC(Cc1c[nH]c2ccccc12)C(=O)NC(Cc1ccccc1)C(=O)NC(CCC(N)=O)C(=O)NC(CC(N)=O)C(=O)NC(CCCNC(=N)N)C(=O)NC(CCCNC(=N)N)C(=O)NC(CCSC)C(=O)NC(CCCCN)C(=O)NC(Cc1c[nH]c2ccccc12)C(=O)NC(CCCCN)C(=O)NC(CCCCN)C(N)=O (stereo not drawn) | > 50 µM | > 50 µM | > 50 µM | > 50 µM | > 50 µM | > 50 µM | > 50 µM | > 50 µM | > 50 µM | > 50 µM |  |  |  |  |  |  |  |  |  |  |
| COC1CCC(OS(C)(=O)=O)CO1 (stereo not drawn) | > 100 µM | > 100 µM |  | > 100 µM | > 100 µM |  | > 100 µM |  | > 100 µM | > 100 µM |  |  |  |  |  |  |  |  |  |  |
| CN1CCC23c4ccccc4NC1C21CCN(C)C3Nc2ccccc21 | > 284 µM | > 375 µM |  | 231 µM | > 375 µM |  |  | > 37.5 µM | > 165 µM |  |  |  |  |  |  |  |  |  |  |  |
| S=C(NCCCCCCNC(=S)Nc1c2ccccc2nc2ccccc12)Nc1c2ccccc2nc2ccccc12 | > 34.7 µM | > 100 µM |  | > 100 µM | > 100 µM |  |  | > 100 µM | > 94.3 µM |  |  |  |  |  |  |  |  |  |  |  |
| O=C1c2scnc2-c2nccc3c2c1nc1ccccc13 |  | 3.6 µM | 1.7 µM | 1.69 µM | > 19.9 µM | 2.94 µM |  | 1.21 µM | > 100 µM | > 100 µM |  |  |  |  |  |  |  |  |  |  |
| N=C(N)C(N=Nc1ccccc1)C(=N)N (stereo not drawn) | > 100 µM | > 100 µM | > 100 µM | > 100 µM | > 100 µM | > 100 µM | > 100 µM | > 100 µM | 99.3 µM |  |  |  |  |  |  |  |  |  |  |  |
| CO[C@@]12C[C@@H](CNC(=O)c3cc(Br)c[nH]3)O[C@@H]1NC(=O)N2 | > 100 µM | > 100 µM | > 100 µM | > 100 µM | > 100 µM | > 100 µM | > 100 µM | > 100 µM |  |  |  |  |  |  |  |  |  |  |  |  |
| COc1nc(C#CCCCC#N)nc(OC)n1 | 36.3 µM | 84.6 µM | > 100 µM | 45.2 µM | > 100 µM | 33.1 µM | 47.8 µM | 61.4 µM | > 100 µM | > 100 µM |  |  |  |  |  |  |  |  |  |  |
| Cc1nc(Cl)c(C)c(Cl)n1 | > 100 µM | > 100 µM | > 100 µM | > 100 µM | > 100 µM | > 100 µM | > 100 µM | > 100 µM | > 100 µM | 71.8 µM |  |  |  |  |  |  |  |  |  |  |
| C=CCOCCCC(=O)C(=[N+]=[N-])C(=O)OC | > 100 µM | > 100 µM |  | > 100 µM | > 100 µM |  | > 100 µM | > 100 µM | > 100 µM | > 100 µM |  |  |  |  |  |  |  |  |  |  |
| C=C1C(C2(C)C=CC(=O)OC3(C)COC(=O)CC32)C(OC=O)C(OC(=O)C(O)C(C)CC)C2(C)C(c3ccoc3)CC(OC(C)=O)C12O (stereo not drawn) | > 100 µM | > 100 µM | > 100 µM | > 100 µM | > 100 µM | > 100 µM | > 100 µM | > 100 µM | > 100 µM | > 100 µM |  |  |  |  |  |  |  |  |  |  |
| Cc1c(N)nc([C@H](CC(N)=O)NC[C@H](N)C(N)=O)nc1C(=O)N[C@H](C(=O)N[C@H](C)[C@@H](O)[C@H](C)C(=O)N[C@H](C(=O)NCCc1nc(-c2nc(C(=O)NCCC[S+](C)C)cs2)cs1)[C@@H](C)O)C(OC1OC(CO)C(O)C(O)C1OC1OC(CO)C(O)C(OC(N)=O)C1O)c1cnc[nH]1 (stereo partly drawn) | 24.5 µM and 23 µM and > 100 µM |  | 24.8 µM and 14.8 µM and 45.9 µM | 24.6 µM and > 100 µM | 25 µM and 29 µM and > 100 µM | 23.8 µM and 25 µM and > 100 µM |  | 22.8 µM and 11.2 µM and 15.2 µM | 13.1 µM and 2.22 µM and 4.41 µM |  | 4.49 µM | 5.28 µM and 1.03 µM and 5.77 µM | 27.5 µM | 6.48 µM and 7.49 µM | 1.49 µM and 1.59 µM | 0.204 µM and 0.613 µM |  |  |  |  |
| CCCCC1Cc2cc(OC)ccc2-c2nc3cc(OC)ccc3n21 (stereo not drawn) (tested in a mixture with another compound) | 43.4 µM |  | 53.8 µM | 29.9 µM | 22.5 µM | 33.3 µM | 28.2 µM | 31.6 µM | 37 µM | 32.1 µM |  |  |  |  |  |  |  |  |  |  |
| COC1(OC)C[C@H](C)[C@@]23O[C@]24c2cc(O)c5c(c2N[C@H]3C#C/C=C\C#C[C@]14O)C(=O)c1ccccc1C5=O | 0.0847 µM and 0.108 µM | 0.0076 µM | 0.0774 µM and 0.455 µM | 0.0789 µM and 0.0505 µM |  | 0.125 µM | 0.0176 µM and 0.0111 µM | 0.048 µM and 0.0756 µM | < 0.001 µM |  | 0.0138 µM and 0.0249 µM | 0.0104 µM | 0.00624 µM |  | 0.0043 µM | < 0.001 µM | 0.0226 µM | 0.00194 µM |  |  |
| OC(c1ccc(-c2ccccc2)cc1)(c1ccc(-c2ccccc2)cc1)c1ccc(-c2ccccc2)cc1 | > 100 µM | > 100 µM | > 100 µM | > 100 µM | > 100 µM | > 100 µM | > 100 µM | > 100 µM | > 100 µM | > 100 µM |  |  |  |  |  |  |  |  |  |  |
| Cc1c(Cl)c(=O)oc2cc(OCC(=O)c3ccccc3)ccc12 | > 100 µM | > 100 µM | > 100 µM | > 100 µM | > 100 µM | > 100 µM | > 100 µM | > 100 µM | > 100 µM | 10.7 µM |  |  |  |  |  |  |  |  |  |  |
| CC(=O)C1=C(O)C2(O)C(=O)c3c(c(C)c4ccc(C)c(O)c4c3O)CC2C(N)C1=O (stereo not drawn) | 8.29 µM | 5.6 µM | 30.5 µM | 11.9 µM | 12.3 µM | 13.6 µM | 23.1 µM | 10.7 µM | 8.86 µM | 4.47 µM |  | 2.33 µM |  | 0.762 µM |  |  |  |  |  |  |
| CN(C)CCNc1c([N+](=O)[O-])cc2c3c(cccc13)C(=O)N(CCN(C)C)C2=O | > 26.4 µM | 6.69 µM |  | 4.71 µM | 5.03 µM |  |  | 3.27 µM | 3.09 µM |  |  |  |  |  |  |  |  |  |  |  |
| O=C(O)C(Cc1ccccc1)N1C(=O)c2ccccc2C1=O (stereo not drawn) | > 100 µM | > 100 µM | > 100 µM | > 100 µM | > 100 µM | > 100 µM | > 100 µM | > 100 µM | > 100 µM |  |  |  |  |  |  |  |  |  |  |  |
| Cc1c2c(cc3c1[nH]c1ccccc13)C(c1ccc(F)cc1)=NCC2 | 7.37 µM | 2.45 µM |  | 2.46 µM | 4.2 µM |  |  | 6.68 µM | 5.34 µM |  |  |  |  |  |  |  |  |  |  |  |
| O=C1CC(N2C(=O)/C(=C/C(Cl)=C\c3ccc([N+](=O)[O-])cc3)SC2=S)C(=O)N1c1ccc(Cl)cc1 (stereo not drawn) |  | 3.24 µM | 6.34 µM | 66.5 µM | 4.6 µM | 3.74 µM | 5.06 µM | > 100 µM | 13.4 µM | 14.2 µM |  | 2.03 µM | 2.92 µM | 1.75 µM | 0.832 µM | 0.596 µM | 0.632 µM | 2.11 µM | 1.4 µM | 0.544 µM |
